Among the data in US6579545B2, “Coated chewing gum products containing an antigas agent” (WM. Wrigley Jr. Company, priority 2000, dated 2003) are particle size and median particle size values, retold here.

On the data set, the source says: Analysis of a precipitated calcium carbonate having a median particle size of about 5 microns was done before and after being applied as a coating.

The structures appear in SMILES notation.

As for `O=C([O-])[O-].[Ca+2]` [precipitated calcium carbonate, calcium carbonate], the particle size (after preparing a suspension and applying it to a gum pellet for an antacid gum product) is recorded as 4.9 microns. The median particle size (before coating) was 5.1 microns.
